These results are taken from PubChem BioAssay (NCI).

Among the test systems are HS 578T breast; NCI/ADR-RES ovarian; MDA-N; XF 498 CNS; DMS 273 small cell lung; KM20L2 colon.
What all share (experiment): NCI anticancer screen, dose series, 48 h

Where “and” joins values, the source holds several entries; their conditions need not be identical. Equal values may be shown once.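 Growth conditions: 96-well plates. Treatment: test compound, 48 hours, 5 concentrations. Analysis: linear interpolation between bracketing concentrations; unreached endpoints set to highest concentration. GI50 = concentration required for 50% inhibition of growth. TGI is the concentration that stops growth completely.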

As to `COc1cc2c(c(Br)c1N)-c1cc(Br)c(N)cc1C2=O`, in the test on HS 578T breast, the GI50 was 3.02 µM and the TGI is over 100 µM. Further, in the test with NCI/ADR-RES ovarian, the GI50 is 5.31 µM and the TGI is over 100 µM.
`c1ccc2c(c1)SCCCSCCCS2`: the TGI in the test on NCI/ADR-RES ovarian and in the test on MDA-N was over 100 µM in each case.
Take `COc1ccc(Br)c(CCCCC(=O)O)c1`: the TGI with XF 498 CNS, with DMS 273 small cell lung and in the test with KM20L2 colon was over 100 µM throughout.
In the case of `Cc1ccc2c(c1)/C(=N\N=C/c1cn(C(C)C)c3ccccc13)C(=O)N2`, the GI50 in the test on HS 578T breast was 10.6 µM; in the test on NCI/ADR-RES ovarian, 73 µM. For the same compound, the TGI in the test on HS 578T breast and with NCI/ADR-RES ovarian was over 100 µM in each case.
As for `COc1cc2nc(-c3ccc(Cl)cc3)cc(OCCCN3CCC(O)CC3)c2cc1OC`, in the test on HS 578T breast, the GI50 is 1.91 µM and the TGI was determined as 6.65 µM. In the test on NCI/ADR-RES ovarian, the GI50 is 0.925 µM and the TGI stood at 14.8 µM.
For the compound `COC12c3ccccc3-c3ccccc3C1[C@@H](C(=O)O)[C@H]2C(=O)O` (some centres undefined), the TGI in the test on HS 578T breast, in the test on NCI/ADR-RES ovarian and in the test on MDA-N was over 10 µM each time.
As for `CCOC(=O)c1c(-c2ccccc2)[nH]c2ccccc2c1=O`, the TGI in the test on HS 578T breast, with NCI/ADR-RES ovarian and in the test with MDA-N was over 100 µM in each case.
As for `CC1(C)CCC(CN2CCN(c3ccc(C(=O)NS(=O)(=O)c4ccc(NCC5CCOCC5)c([N+](=O)[O-])c4)c(Oc4cnc5[nH]ccc5c4)c3)CC2)=C(c2ccc(Cl)cc2)C1`, in the test on HS 578T breast, the GI50 was 2.94 µM and the TGI is 12.2 µM. Besides, in the test on NCI/ADR-RES ovarian, the GI50 was 5 µM and the TGI came out at 27.3 µM.
Take `Cc1nc(N=C(N)N)nc2ccc3ccccc3c12`: in the test with HS 578T breast, the GI50 was 0.606 µM and the TGI amounted to 3.16 µM. For the same compound, in the test on NCI/ADR-RES ovarian, the GI50 was 11.4 µM and the TGI turned out to be 36 µM.
For the compound `Nc1ccc(C(=O)O)c2[nH]c3ccccc3c(=O)c12`, the TGI in the test on DMS 273 small cell lung and in the test with KM20L2 colon was over 100 µM in each case.
Take `COc1cc(C2c3cc4c(cc3[C@@H](OCCN)[C@H]3COC(=O)C23)OCO4)cc(OC)c1O` (some centres undefined): the TGI in the test with XF 498 CNS turned out to be 0.489 µM; with KM20L2 colon, 2.79 µM.
On to `COc1ccc(C(=O)Nc2ccccc2C#N)cc1`, for which the TGI in the test with XF 498 CNS, in the test with DMS 273 small cell lung and in the test on KM20L2 colon was over 100 µM in each case.
For the compound `COC(=O)[C@@]12C3=NO[C@]1(C(=O)OC)C(O[Si](C)(C)C(C)(C)C)C1OC(C)(C)OC1[C@@H]2[C@@H](OCc1ccccc1)CC3` (some centres undefined), the TGI in the test on DMS 273 small cell lung and in the test with KM20L2 colon was over 100 µM each time.
Consider `Cc1cc2c(C)nn(Cc3ccc(Cl)cc3Cl)c2c(C#N)c1C`, for which the TGI in the test on XF 498 CNS, in the test with DMS 273 small cell lung and in the test on KM20L2 colon was over 100 µM each time.
For `Cc1cc(C)c2c(c1C)CN1CN2Cc2c(C)c(C)cc(C)c21`, the TGI in the test with DMS 273 small cell lung is over 100 µM.
With `O=C1/C(=C\c2ccccc2)CN(C(=O)c2ccccc2F)C/C1=C\c1ccccc1`, the GI50 in the test with HS 578T breast is 2.48 µM; in the test on NCI/ADR-RES ovarian, 3.3 µM. For the same compound, the values for the TGI in the test on HS 578T breast and in the test on NCI/ADR-RES ovarian were 7.13 µM and 19.4 µM, respectively.
For `COc1ccc(C2=NN(c3ccc(S(N)(=O)=O)cc3)C(c3ccc(Cl)cc3)C2)c(O)c1` (centres undefined), in the test on HS 578T breast, the GI50 is 3.93 µM and the TGI is 19.5 µM. Further, in the test on NCI/ADR-RES ovarian, the GI50 was 3.98 µM and the TGI turned out to be 21.1 µM.
For the compound `C/C(=N\NC(=S)Nc1ccccc1)c1ccccn1`, the values for the GI50 in the test with HS 578T breast and in the test on NCI/ADR-RES ovarian were 0.0857 µM and 0.0469 µM, respectively. The TGI in the test with HS 578T breast was 38.4 µM; in the test on NCI/ADR-RES ovarian, 4.58 µM.
For `O=C(Nc1ccc(Cl)cc1)C(=O)C1=C(O)c2ccccc2OC1`, the TGI with HS 578T breast, in the test with NCI/ADR-RES ovarian and in the test on MDA-N was over 100 µM in each case.
On to `C/C=C(\C)C(=O)O[C@@H]1C=CC(=O)O[C@H]1COC(=O)[C@H](C)O`, for which, in the test with HS 578T breast, the GI50 was 5.61 µM and the TGI came out at 34.6 µM. Further, in the test with NCI/ADR-RES ovarian, the GI50 was 14.6 µM and the TGI came to 56.8 µM.
With `O=C1c2cccnc2-c2nc(-c3ccccc3)cc3c2c1nc1ccccc13`, the GI50 in the test with HS 578T breast was 16.6 µM; in the test with NCI/ADR-RES ovarian it was 11.9 µM; in the test with MDA-N, 1.74 µM. For the same compound, the TGI in the test with HS 578T breast is 42.9 µM; in the test on NCI/ADR-RES ovarian, 32.7 µM; with MDA-N it was 3.46 µM.
Regarding `CNS(=O)(=O)NN(C)S(=O)(=O)c1ccc(C)cc1`, the TGI in the test with KM20L2 colon is over 100 µM.
Regarding `NCCCNCCCNc1nc2ccccc2c2[nH]c3ccccc3c12`, in the test with HS 578T breast, the GI50 was 0.132 µM and the TGI was found to be 1.54 µM. Moreover, in the test with NCI/ADR-RES ovarian, the GI50 was 0.645 µM and 0.621 µM; the TGI was over 100 µM.
On to `c1ccc(COc2ccc(Nc3ncnc4ccc(-c5ccco5)cc34)cc2)cc1`, for which, in the test with HS 578T breast, the GI50 was 7.71 µM and the TGI was over 23.5 µM. In the test on NCI/ADR-RES ovarian, the GI50 is 7.97 µM and the TGI was over 25 µM.
Turning to `CC1(C)OCC(C2OC(On3nnc4ccc(Cl)cc43)C3OC(C)(C)OC23)O1` (centres undefined), the TGI in the test with HS 578T breast, in the test with NCI/ADR-RES ovarian and in the test on MDA-N was over 100 µM in each case.
For the compound `COc1cc2c(cc1OCCCN1CCN(CCCOc3cc4c(cc3OC)C(=O)C3CCC[C@H]3C=N4)CC1)N=C[C@@H]1CCCC1C2=O` (some centres undefined), in the test on HS 578T breast, the GI50 is 1.42 µM and the TGI is 15.1 µM. Besides, in the test with NCI/ADR-RES ovarian, the GI50 is over 100 µM and the TGI was over 100 µM.
In the test on KM20L2 colon, `CCCCCNC(=O)C1C(=O)N(CCCCC)C(=O)/C1=N\N` (centres undefined) gave a TGI of over 100 µM.
As to `COc1cccc(C2C3=C(COC3=O)N(CCO)c3cc4c(cc32)CCC4)c1` (centres undefined), the values for the GI50 with HS 578T breast and in the test with NCI/ADR-RES ovarian were 0.0285 µM and 0.0556 µM, respectively. Moreover, the TGI in the test with HS 578T breast was 32.4 µM; with NCI/ADR-RES ovarian, 0.23 µM.
For `OCCC#Cc1ccccc1C#Cc1ccccc1`, in the test on HS 578T breast, the GI50 is 11.9 µM and the TGI turned out to be 33.3 µM. Further, in the test on NCI/ADR-RES ovarian, the GI50 is 17.9 µM and the TGI was found to be 53.6 µM.
